Consider 22 compounds from patent US9464076B2, “Benzothiophene derivative” (Daiichi Sankyo Company, Limited, priority 2013, dated 2016).

Assay [1] addresses PDE10A (Homo sapiens (Human), UniProt Q9Y233). Nature of the assay: Measurement of PDE10A inhibitory activity-2 (PDE10A fraction prepared from MOLT-4 cells). The assay is classed as biochemical. To be noted: PDE10A fraction from MOLT-4 cells (peak around 250 mM NaCl). On the procedure:
A human acute lymphoblastic lymphoma T cell line MOLT-4 (which can be purchased under ATCC No. CRL-1582 from ATCC) was cultured in an RPMI1640 medium containing 10% fetal bovine serum to obtain 5×10^8 MOLT-4 cells. The cells were recovered by centrifugation and suspended in 10 ml of buffer solution A (25 mM Tris-HCl, 5 mM 2-mercaptoethanol, 2 mM benzamidine, 2 mM EDTA, and 0.1 mM 4-(2-aminoethyl)benzenesulfonyl hydrochloride, pH 7.5). The cells were homogenized using a Polytron homogenizer and centrifuged (4° C., 25,000 g, 10 minutes). Then, the supernatant was further ultracentrifuged (4° C., 100,000 g, 60 minutes). The obtained supernatant was filtered through a 0.2 μm filter to obtain a soluble fraction.
HiTrap Q HP column (5 ml×2, GE Healthcare Japan Corp.) equilibrated with buffer solution A was charged with the obtained soluble fraction. Phosphodiesterase was eluted with 300 ml of buffer solution A containing a linear gradient solution of 0 to 0.8 M NaCl to recover sixty 5-ml fractions. Each fraction was tested for cAMP-metabolizing phosphodiesterase activity.
On the other hand, total RNA was prepared from Jurkat cells, one type of human T cell, and similarly subjected to RT-PCR. […] Eur J Biochem. 1999, 266 (3), 1118-2 has reported that PDE10A from the rat striatum and testis is eluted as an active peak centered around 250 mM NaCl.
For these reasons, this fraction was used as a solution for the evaluation of PDE10A inhibitory activity. The obtained solution was used to calculate the inhibitory activity (IC50) of a test compound in the same way as in the aforementioned test.

Assay [2] has as its system Male C57BL/6 Cr mice. Nature of the assay: Test on suppression of phencyclidine-induced hyperlocomotion in mice. The assay is classed as in vivo, mouse. To be noted: locomotor activity, test compound 10 mg/kg oral, phencyclidine 5 mg/kg s.c. approx. 1 hour later, measured for 1 hour; for inhibition in vivo at 10 mg/kg: Mus musculus, po, 1 h. On the procedure: Male C57BL/6 Cr mice (Japan SLC, Inc.) (8 weeks old) were used in the experiment. A test compound was suspended at 1 mg/mL in a 0.5% hydroxypropylcellulose solution to prepare a suspension for administration. The suspension of the test compound or a solvent (0.5% hydroxypropylcellulose solution) was orally administered at a dose of 10 mL/kg to each mouse. After the administration, the mouse was immediately placed in a locomotor activity measurement apparatus (Muromachi Kikai Co., Ltd., locomotor activity measurement system SUPERMEX). Approximately 1 hour later, phencyclidine (5 mg/10 mL/kg) or a solvent (10 mL/kg saline) was subcutaneously administered to the mouse. The locomotor activity was measured from immediately after the subcutaneous administration to 1 hour later.
Percent inhibition exceeding 100 means that when the activity of the phencyclidine administration control group was defined as 100, the activity of the group given a test compound was lower than that of the solvent administration control group.

Molecules are shown by their SMILES. Where a name gives a salt, the structure may show the parent alone.

Chain of PDE10A (Q9Y233 whole entry): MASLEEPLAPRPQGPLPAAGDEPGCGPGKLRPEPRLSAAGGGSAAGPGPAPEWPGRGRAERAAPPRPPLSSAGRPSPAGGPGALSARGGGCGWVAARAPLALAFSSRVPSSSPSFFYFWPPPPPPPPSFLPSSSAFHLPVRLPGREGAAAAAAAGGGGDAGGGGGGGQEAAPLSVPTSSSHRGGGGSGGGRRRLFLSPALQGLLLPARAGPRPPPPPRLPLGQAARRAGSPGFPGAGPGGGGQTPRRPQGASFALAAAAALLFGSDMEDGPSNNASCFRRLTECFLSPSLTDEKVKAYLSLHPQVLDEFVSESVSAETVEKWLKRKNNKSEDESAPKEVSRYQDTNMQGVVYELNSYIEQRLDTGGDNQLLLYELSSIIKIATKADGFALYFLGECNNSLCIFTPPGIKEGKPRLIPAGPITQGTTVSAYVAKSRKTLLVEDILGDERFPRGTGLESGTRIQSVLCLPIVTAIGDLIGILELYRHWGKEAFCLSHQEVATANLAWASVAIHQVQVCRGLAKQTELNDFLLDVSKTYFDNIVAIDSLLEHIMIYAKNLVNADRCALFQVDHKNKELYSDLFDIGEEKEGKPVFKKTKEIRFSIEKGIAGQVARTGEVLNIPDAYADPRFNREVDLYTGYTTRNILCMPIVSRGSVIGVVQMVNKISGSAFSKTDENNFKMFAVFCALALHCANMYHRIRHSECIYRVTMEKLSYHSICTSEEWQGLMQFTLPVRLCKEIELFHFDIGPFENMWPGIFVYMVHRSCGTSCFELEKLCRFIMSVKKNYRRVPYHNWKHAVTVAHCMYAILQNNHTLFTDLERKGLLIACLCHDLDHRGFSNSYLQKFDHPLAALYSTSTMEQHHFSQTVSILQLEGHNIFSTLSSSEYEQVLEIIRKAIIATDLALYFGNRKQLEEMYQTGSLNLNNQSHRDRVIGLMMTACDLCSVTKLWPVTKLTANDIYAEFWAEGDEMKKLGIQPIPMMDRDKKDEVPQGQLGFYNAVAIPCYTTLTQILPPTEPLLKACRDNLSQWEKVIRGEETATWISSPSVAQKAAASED

As a reminder, the IC50 is the point on the concentration scale where inhibition reaches its midpoint. High values mean weaker potency, low ones greater potency. For orientation: inhibition in vivo means the drop in the measured response relative to a control, in per cent. Consider `COCc1ccc(C(C)=O)c2sc(C(=O)Nc3cc(C(C)(C)O)c4ccccc4n3)c(C)c12` [Example 26, 7-Acetyl-N-(4-(2-hydroxypropan-2-yl)quinolin-2-yl)-4-(methoxymethyl)-3-methylbenzo[b]thiophene-2-carboxamide], for which, in assay [1], the IC50 amounted to 1.8 nM. The inhibition in vivo at 10 mg/kg in assay [2] was found to be 84%.

Turning to `COCc1ccc(C(C)=O)c2sc(C(=O)Nc3cc(CN4CCC(O)CC4)c4ccccc4n3)c(C)c12` [Example 36, 7-Acetyl-N-(4-((4-hydroxypiperidin-1-yl)methyl)quinolin-2-yl)-4-(methoxymethyl)-3-methylbenzo[b]thiophene-2-carboxamide], in assay [1], inhibition was half-maximal at 0.35 nM (IC50). Further, the inhibition in vivo at 10 mg/kg in assay [2] was determined as 69%.

On to `CCc1c(C(=O)Nc2cc(CN3CC[C@@H](O)C3)c3ccccc3n2)sc2c(C(C)=O)ccc(COC)c12` [Example 42, (R)-7-Acetyl-3-ethyl-N-(4-((3-hydroxypyrrolidin-1-yl)methyl)quinolin-2-yl)-4-(methoxymethyl)benzo[b]thiophene-2-carboxamide], for which, in assay [1], the IC50 is 0.92 nM. In addition, the inhibition in vivo at 10 mg/kg in assay [2] amounted to 85%.

As to `COCc1ccc(C(C)=O)c2sc(C(=O)Nc3cc(CN4CCOCC4)c4ccccc4n3)c(C)c12` [Example 44, 7-Acetyl-4-(methoxymethyl)-3-methyl-N-(4-(morpholinomethyl)quinolin-2-yl)benzo[b]thiophene-2-carboxamide], in assay [1], the IC50 worked out at 2.1 nM. In assay [2], the inhibition in vivo at 10 mg/kg stood at 104%.

On to `COCc1ccc(C(C)=O)c2sc(C(=O)Nc3cc(CN4CC[C@@H](F)C4)c4ccccc4n3)c(C)c12` [Example 45, (R)-7-Acetyl-N-(4-((3-fluoropyrrolidin-1-yl)methyl)quinolin-2-yl)-4-(methoxymethyl)-3-methylbenzo[b]thiophene-2-carboxamide], for which, in assay [1], the IC50 worked out at 0.5 nM. Moreover, in assay [2], the inhibition in vivo at 10 mg/kg worked out at 97%.

Compound `COCc1ccc(C(C)=O)c2sc(C(=O)Nc3cc(CN4CC(O)C4)c4ccccc4n3)c(C)c12` [Example 47, 7-Acetyl-N-(4-((3-hydroxyazetidin-1-yl)methyl)quinolin-2-yl)-4-(methoxymethyl)-3-methylbenzo[b]thiophene-2-carboxamide dihydrochloride] had an IC50 in assay [1] of 0.49 nM. Besides, the inhibition in vivo at 10 mg/kg in assay [2] came to 73%.

In the case of `COCc1ccc(C(C)=O)c2sc(C(=O)Nc3ccc4ccccc4n3)c(C)c12` [Example 49, 7-Acetyl-4-(methoxymethyl)-3-methyl-N-(quinolin-2-yl)benzo[b]thiophene-2-carboxamide], in assay [2], the inhibition in vivo at 10 mg/kg amounted to 104%.

Turning to `COCc1ccc(C(C)=O)c2sc(C(=O)Nc3cc(N)c4ccccc4n3)c(C)c12` [Example 54, 7-Acetyl-N-(4-aminoquinolin-2-yl)-4-(methoxymethyl)-3-methylbenzo[b]thiophene-2-carboxamide], the IC50 in assay [1] is 0.054 nM. Besides, the inhibition in vivo at 10 mg/kg in assay [2] was 68%.

With `COCc1ccc(C(C)=O)c2sc(C(=O)Nc3cc(N(C)C)c4ccccc4n3)c(C)c12` [Example 55, 7-Acetyl-N-(4-(dimethylamino)quinolin-2-yl)-4-(methoxymethyl)-3-methylbenzo[b]thiophene-2-carboxamide], the inhibition in vivo at 10 mg/kg in assay [2] stood at 127%.

`COCc1ccc(C(C)=O)c2sc(C(=O)Nc3cc(N4CCN(C)CC4)c4ccccc4n3)c(C)c12` [Example 57, 7-Acetyl-4-(methoxymethyl)-3-methyl-N-(4-(4-methylpiperazin-1-yl)quinolin-2-yl)benzo[b]thiophene-2-carboxamide] had an IC50 in assay [1] of 1.6 nM. Moreover, the inhibition in vivo at 10 mg/kg in assay [2] stood at 86%.

Take `COCc1ccc(C(=O)C(C)C)c2sc(C(=O)Nc3cc(CN4CC[C@@H](O)C4)c4ccccc4n3)c(C)c12` [Example 59, (R)—N-(4-((3-Hydroxypyrrolidin-1-yl)methyl)quinolin-2-yl)-7-isobutyryl-4-(methoxymethyl)-3-methylbenzo[b]thiophene-2-carboxamide dihydrochloride]: in assay [1], inhibition was half-maximal at 0.31 nM (IC50). In assay [2], the inhibition in vivo at 10 mg/kg came to 67%.

Consider `COCc1ccc(C(C)=O)c2sc(C(=O)Nc3ccc4c(CN5CC[C@@H](F)C5)cccc4n3)c(C)c12` [Example 60, (R)-7-Acetyl-N-(5-((3-fluoropyrrolidin-1-yl)methyl)quinolin-2-yl)-4-(methoxymethyl)-3-methylbenzo[b]thiophene-2-carboxamide hydrochloride], for which the inhibition in vivo at 10 mg/kg in assay [2] came out at 107%.

`COCc1ccc(C(C)=O)c2sc(C(=O)Nc3ccc4c(CN5CC[C@H](O)C5)cccc4n3)c(C)c12` [Example 63, (S)-7-Acetyl-N-(5-((3-hydroxypyrrolidin-1-yl)methyl)quinolin-2-yl)-4-(methoxymethyl)-3-methylbenzo[b]thiophene-2-carboxamide dihydrochloride]: the IC50 in assay [1] was found to be 1.1 nM. For the same compound, in assay [2], the inhibition in vivo at 10 mg/kg came to 84%.

In the case of `COCc1ccc(C(C)=O)c2sc(C(=O)Nc3ccc4c(CN5CC(O)C5)cccc4n3)c(C)c12` [Example 65, 7-Acetyl-N-(5-((3-hydroxyazetidin-1-yl)methyl)quinolin-2-yl)-4-(methoxymethyl)-3-methylbenzo[b]thiophene-2-carboxamide dihydrochloride], in assay [1], the midpoint of inhibition, the IC50, lay at 0.39 nM. For the same compound, the inhibition in vivo at 10 mg/kg in assay [2] is 37%.

For the compound `COCc1ccc(C(C)=O)c2sc(C(=O)Nc3ccc4c(CN5CC(OC)C5)cccc4n3)c(C)c12` [Example 66, 7-Acetyl-N-(5-((3-methoxyazetidin-1-yl)methyl)quinolin-2-yl)-4-(methoxymethyl)-3-methylbenzo[b]thiophene-2-carboxamide], the IC50 in assay [1] stood at 1.2 nM. In assay [2], the inhibition in vivo at 10 mg/kg is 91%.

Regarding `COCCOCc1cccc2nc(NC(=O)c3sc4c(C(C)=O)ccc(COC)c4c3C)ccc12` [Example 71, 7-Acetyl-N-(5-((2-methoxyethoxy)methyl)quinolin-2-yl)-4-(methoxymethyl)-3-methylbenzo[b]thiophene-2-carboxamide hydrochloride], in assay [1], the IC50 amounted to 0.75 nM. Also, the inhibition in vivo at 10 mg/kg in assay [2] came to 89%.

`COCc1ccc(C(C)=O)c2sc(C(=O)Nc3ccc4c(COCCO)cccc4n3)c(C)c12` [Example 72, 7-Acetyl-N-(5-((2-hydroxyethoxy)methyl)quinolin-2-yl)-4-(methoxymethyl)-3-methylbenzo[b]thiophene-2-carboxamide hydrochloride] returned an IC50 in assay [1] of 0.54 nM. In addition, the inhibition in vivo at 10 mg/kg in assay [2] was 83%.

In turn, `COCc1ccc(C(C)=O)c2sc(C(=O)Nc3ccc4c(C(C)O)cccc4n3)c(C)c12` (stereo not shown) [Example 76, 7-Acetyl-N-(5-(1-hydroxyethyl)quinolin-2-yl)-4-(methoxymethyl)-3-methylbenzo[b]thiophene-2-carboxamide] showed an IC50 in assay [1] of 0.53 nM. Moreover, the inhibition in vivo at 10 mg/kg in assay [2] amounted to 102%.

As a reminder, the % inhibition is the percentage by which the read-out fell short of the control. Regarding `COCc1ccc(C(C)=O)c2sc(C(=O)Nc3ccc4c(CO)cccc4n3)c(C)c12.Cl` [Example 77, 7-Acetyl-N-(5-(hydroxymethyl)quinolin-2-yl)-4-(methoxymethyl)-3-methylbenzo[b]thiophene-2-carboxamide hydrochloride], the “% inhibition” value in assay [2] is reported as 96%.

Take `COCc1ccc(C(C)=O)c2sc(C(=O)Nc3ccc4c(C(=O)N5CCN(C)CC5)cccc4n3)c(C)c12` [Example 96, 7-Acetyl-4-(methoxymethyl)-3-methyl-N-(5-((4-methylpiperazin-1-yl)carbonyl)quinolin-2-yl)benzo[b]thiophene-2-carboxamide]: the inhibition in vivo at 10 mg/kg in assay [2] was 65%.

Consider `[2H]C([2H])([2H])OCc1ccc(C(C)=O)c2sc(C(=O)Nc3ccc4c(CO)cccc4n3)c(C)c12` [Example 120, 7-Acetyl-N-(5-(hydroxymethyl)quinolin-2-yl)-4-((^2H3)methoxymethyl)-3-methylbenzo[b]thiophene-2-carboxamide], for which the inhibition in vivo at 10 mg/kg in assay [2] is 52%.

In turn, `COCc1ccc(C(C)=O)c2sc(C(=O)Nc3cc(CN4CCNCC4)c4ccccc4n3)c(C)c12` [Example 124, 7-Acetyl-4-(methoxymethyl)-3-methyl-N-(4-(piperazin-1-ylmethyl)quinolin-2-yl)benzo[b]thiophene-2-carboxamide] gave an IC50 in assay [1] of 2.9 nM.
